Measurements as given in US20240344128A1, “IDENTIFICATION AND ELIMINATION OF DAMAGED AND/OR SENESCENT CELLS” (FUNDACIÓN DEL SECTOR PÜBLICO ESTATAL CENTRO NACIONAL DE …, priority 2017, published 2024).

Key:
PD-L2 mRNA [1] = experiment: Doxorubicin-induced PD-L2 mRNA in C2C12 cells with enzymatic inhibitors; format: cell-based, mouse; settings: 500 nM doxorubicin, 48 hours
Experimental: C2C12 cells (FIG. 9) were treated with 500 nM doxorubicin for 48 hours in the presence or absence of the following inhibitors at the indicated concentrations: IKKi (50 μM), PIMi (1 μM), rotenone (1 μM), JAKi (3 μM), rapamycin (50 nM) and metformin (5 mM) or cultured in pyruvate-depleted media (FIG. 9A). In addition, C2C12 cells were incubated for 6 hours in the presence or absence of TLRs agonists (Mouse TLR1-9 Agonist kit. Invivogen): TLR1/2 agonist (Pam3CSK4, 300 ng/ml), TLR2 agonist (HKLM, 10^8 cells/ml), TLR3 agonist (Poly (I:C) HMW and Poly (I:C) LMW, 10 μg/ml), TLR4 agonist (LPS-EK, 10 μg/ml), TRL5 agonist (FLA-ST, 1 μg/ml), TRL6/2 agonist (FSL-1, 100 ng/ml), TRL7 agonist (ssRNA40, 5 μg/ml) and TLR9 agonist (ODN1826, 5 μM). Total RNA was isolated using TRI Reagent (Sigma-Aldrich #T9424) according to the manufacturer's instructions.
(§1) The isolated RNA was quantified using a nanodrop machine NanoVue (GE Healthcare). cDNA synthesis was performed with 2-7 μg of total RNA using the “iScript Advanced cDNA Synthesis kit” from BIO-RAD (#1725037). Quantitative real-time PCR was carried out with diluted cDNA (1:10) and “GoTaq qPCR Master Mix” (Promega A6002). Reactions were performed in triplicate in a 15 μl volume reaction mix prepared as follow: 7.5 μl 2X GoTaq qPCR Master Mix; 0.6 μl of pre-mixed primers (10 μM forward primer and 10 μM reverse primer); 1.9 μl nuclease-free water and 5 μl template cDNA (previously diluted 1:10).
The qRT-PCR reaction was performed on a 7500 Fast Real-Time PCR System (Applied Biosystems) using “MicroAmp Fast Optical 96-well reaction plate with barcode” (Thermo Fisher #4346906) and “MicroAmp Optical adhesive film” (Thermo Fisher #4311971). The reaction consisted in two holding stages (50° C. for 2:00 min and 95° C. for 10:00 min) and 40 amplification reactions (95° C. for 00:15 min/60° C. for 01:00 min/72° C. for 00:30 min) followed by a Melt Curve Stage.
The Ct values of the genes of interest were averaged and normalized to the housekeeping gene β-actin. For each cell line and condition at least two independent experiments were performed.

[2] = test system: SK-Mel-103, UT-SCC-38 and UT-SCC-42B cells; experiment: SA-β gal / senescent response in human tumor cell lines; format: cell-based; settings: SK-Mel-103 cells, 7 days
Experimental: SK-Mel-103, UT-SCC-38 and UT-SCC-42B the cell lines were maintained in DMEM (Gibco) supplemented with 10% fetal bovine serum (Gibco) with antimycotic-antibiotic (Gibco), and incubated in 20% O2 sand 5% CO2 at 37° C. SK-Mel-103 and UT-SCC-42B cells were split 1:10 every 3-4 days. UT-SCC-38 were split 1:3 every 3-4 days.
Eight days before the assay 20.000 SK-Mel-103 cells and 40.000 UT-SCC-38 and UT-SCC-42B cells were seeded into 6 well tissue culture plates (Falcon). The next day cells were treated with 2 μM Palbociclib. SK-Mel-103 cells were also treated with 10 nM Doxorubicin, 1 μM Nutlin or 6×10^−3 units/ml Bleomycin. All the cells were incubated in the presence of the senescence-inducing agents for at least 7 days without changing the media. Control cells were seeded in 6 well plates 24-48 hours prior the SA-β gal assay.
SA-β galactosidase activity was assessed with the β-Galactosidase Staining Kit from Cell Signaling (#9860) following the manufactured instructions with one single variation: the pH of the “Staining Solution” (supplemented with buffers A and B and X-gal) was carefully adjusted to 6.

PD-L2 mRNA [3] = experiment: PD-L1 and PD-L2 mRNA by quantitative RT-PCR in human tumor cell lines; format: cell-based; settings: SK-Mel-103 cells, 7 days
Experimental: Treated cells were not further split and their media was not changed for the duration of the treatment. Control cells were split every 3-4 days as previously described. One week after the start of the treatment, total RNA was isolated from control and treated cells with TRI Reagent (Sigma-Aldrich #T9424) following the manufacturer instructions. The isolated RNA was quantified using a nanodrop machine NanoVue (GE Healthcare). cDNA synthesis was performed with 2-7 μg of total RNA using the “iScript Advanced cDNA Synthesis kit” from BIO-RAD (#1725037). Quantitative real-time PCR was carried out with diluted cDNA (1:10) and “GoTaq qPCR Master Mix” (Promega A6002). Reactions were performed in triplicate in a 15 μl volume reaction mix prepared as follow: 7.5 μl 2X GoTaq qPCR Master Mix; 0.6 μl of pre-mixed primers (10 μM forward primer and 10 μM reverse primer); 1.9 μl nuclease-free water and 5 μl template cDNA (previously diluted 1:10). The qRT-PCR reaction was performed on a 7500 Fast Real-Time PCR System (Applied Biosystems) using “MicroAmp Fast Optical 96-well reaction plate with barcode” (Thermo Fisher #4346906) and “MicroAmp Optical adhesive film” (Thermo Fisher #4311971). […]

SK-Mel-103 cells = experiment: 53BP1 immunofluorescence (DNA double-strand breaks); format: cell-based, human; settings: 7 days
Experimental: SK-Mel-103 cells were seeded at 50% confluency on round 12 mm diameter coverslips (Marienfeld #0111520) previously placed inside 24 well plates. The following day, cells were treated with the senescence-inducing agents: 2 μM Palbociclib, […], 1 μM Nutlin and 6×10^−3 units/ml Bleomycin. Treated cells were not further split and their media was not changed for the duration of the treatment (7 days). Control cells were seeded similarly to treated, cells 24-48 hours prior the beginning of the procedure. Seven days after addition of the senescence-inducing agents, control and treated cells were washed with 1×PBS and Fixed on 2% paraformaldehyde-PBS for 10 minutes. The cells were then permeabilized with 0.25% Triton-PBS for 5 minutes, washed twice with 1×PBS and blocked with 5% BSA-PBS for 30 minutes. Next, the cells were incubated for 30 minutes with anti-53BP1 antibody (Abcam #ab172580) previously diluted 1:100 in blocking buffer (5% BSA-PBS), washed 3 times for 10 minutes with 1X PBS and incubated in the dark for 30 additional minutes with the secondary antibody: goat anti-rabbit Alexa Fluor 546 (ThermoFisher #A-11010) diluted 1:400 in blocking buffer. Finally, the cells were washed again 3 times for 10 minutes with 1×PBS and incubated with DAPI (Sigma #D9542) 300 nM in 1×PBS for 10 minutes. All the incubations and washed were performed at room temperature in 24 well plates. […]

PD-L2 mRNA [4] = experiment: PD-L1 and PD-L2 mRNA by quantitative RT-PCR in mouse cell lines after 48 hours of genotoxic drugs; format: cell-based; settings: C2C12, HcMel3 and HcMel13 cells
Experimental: C2C12, HcMel3 and HcMel12 (FIG. 3) were treated with 12×10^−3 units/ml bleomycin or doxorubicin 500 nM (C2C12) or 167 nM (HcMel3 and HcMel12) for 48 hours. Total RNA was isolated using TRI Reagent (Sigma-Aldrich #T9424) according to the manufacturer's instructions.
as §1
The qRT-PCR reaction was performed on a 7500 Fast Real-Time PCR System (Applied Biosystems) using “MicroAmp Fast Optical 96-well reaction plate with barcode” (Thermo Fisher #4346906) and “MicroAmp Optical adhesive film” (Thermo Fisher #4311971). The reaction consisted in two holding stages (50° C. for 2:00 min and 95° C. for 10:00 min) and 40 amplification reactions (95° C. for 00:15 min/60° C. for 01:00 min/72° C. for 00:30 min) followed by a Melt Curve Stage. […]

senescent cells = settings: cited from earlier work; for elimination of senescent cells: literature reports
PD-L2 mRNA [5] = experiment: PD-L2 mRNA in mouse melanoma cell lines B16F1 and B16F10; format: cell-based; settings: B16F1 and B16F10 cells; data not shown
lungs = experiment: Bleomycin-induced lung fibrosis in C57BL6 mice; format: in vivo, mouse; settings: single intratracheal dose, 14 days
Experimental: SA-β galactosidase activity was assessed in whole mount lungs (FIG. 5A) and xenografts (FIG. 6B) using the Senescence β-Galactosidase Staining Kit (Cell Signaling #9860). Lungs were fixed for 45 minutes with a solution containing 2% formaldehyde and 0.2% glutaraldehyde in PBS for 45 minutes and washed three times with PBS. Fixed tissues were subsequently stained overnight (16 hours) with X-gal staining solution (adjusted to pH 6.0).
For gene expression analysis lungs were isolated and embedded in optimal cutting temperature (OCT) compound (Leica Biosystems). To obtain total RNA of OCT embedded tissue samples, 10 cryostat sections of 10 μm thickness were cut and excess OCT were removed. Cryosections were lysed in TRI Reagent (Sigma-Aldrich #T9424), pooled and processed according to manufacturer's instructions. cDNA was synthesized using 2 μg of total RNA. cDNA synthesis and RT-qPCR were performed as previously described. The Ct values of the genes of interest were averaged and normalized to the housekeeping gene Gapdh.
Lung fibrosis was induced in C57BL6 mice (ENVIGO) by intratracheal delivery of a single dose of bleomycin (1.5 U/kg) or vehicle (PBS). 14 days after intratracheal injection, lung samples of vehicle (control) or bleomycin (fibrotic)-treated mice were collected for the analysis of SA-β gal activity and gene expression.

Fc1cc(-c2cccc3ncc(-c4cnn(C5CCNCC5)c4)nc23)cc(F)c1CN1CCOCC1 [JAK inhibitor, NVP-BSK805]
PD-L2 induction (PD-L2 mRNA [1]): prevented PD-L2 induction

Nutlin
induction of senescence [2]: induce senescence in the SK-Mel-103 cells | PD-L2 mRNA levels (PD-L2 mRNA [3]): had a similar effect on PD-L2 mRNA levels | DNA damage (53BP1 foci) (SK-Mel-103 cells): absence of 53BP1 foci in the chromatin

C=C(C)[C@H]1Cc2c(ccc3c2O[C@@H]2COc4cc(OC)c(OC)cc4[C@@H]2C3=O)O1 [rotenone]
PD-L2 induction (PD-L2 mRNA [1]): prevented PD-L2 induction

CN(C)C(=N)N=C(N)N [metformin]
PD-L2 induction (PD-L2 mRNA [1]): prevented PD-L2 induction

COc1cccc2c1C(=O)c1c(O)c3c(c(O)c1C2=O)C[C@@](O)(C(=O)CO)C[C@@H]3O[C@H]1C[C@H](N)[C@H](O)[C@H](C)O1 [doxorubicin, Doxorubicin]
PD-L2 mRNA (PD-L2 mRNA [4]): dramatic increase in PD-L2 mRNA

Cc1ccc(S(=O)(=O)/C=C/C#N)cc1 [NFkB inhibitor, BAY 11-7082]
PD-L2 induction (PD-L2 mRNA [1]): prevented PD-L2 induction

CC1(C)CCC(c2ccc(Cl)cc2)=C(CN2CCN(c3ccc(C(=O)NS(=O)(=O)c4ccc(N[C@H](CCN5CCOCC5)CSc5ccccc5)c(S(=O)(=O)C(F)(F)F)c4)cc3)CC2)C1 [Navitoclax]
elimination of senescent cells (senescent cells): efficiently eliminate senescent cells in vitro and in vivo

CN(C)CC[C@H](CSc1ccccc1)Nc1ccc(S(=O)(=O)NC(=O)c2ccc(N3CCN(Cc4ccccc4-c4ccc(Cl)cc4)CC3)cc2)cc1[N+](=O)[O-] [ABT-737]
elimination of senescent cells (senescent cells): selectively eliminate senescent cells

O=c1c(O)c(-c2ccc(O)c(O)c2)oc2cc(O)cc(O)c12 [Quercetin]
number of damaged and/or senescent cells (senescent cells; Dasatinib and Quercetin used in combination, aged, progeroid and irradiation-exposed mice): reduced the number of damaged and/or senescent cells

Bleomycin
induction of senescence [2]: induce senescence in the SK-Mel-103 cells | PD-L2 mRNA levels (PD-L2 mRNA [3]): had a similar effect on PD-L2 mRNA levels | DNA damage (53BP1 foci) (SK-Mel-103 cells): exhibited nuclear 53-BP1 foci | PD-L2 mRNA (PD-L2 mRNA [5]): PD-L2 mRNA up-regulation | PD-L2 mRNA (PD-L2 mRNA [4]): dramatic increase in PD-L2 mRNA | senescent cells (SA-β galactosidase positive staining) in whole fibrotic lungs (lungs): accumulation of senescent cells | PD-L2 and PD-L1 mRNA in fibrotic organs (lungs; lung): significant and specific up-regulation of PD-L2 mRNA, but not of PD-L1 mRNA
